Tests used:
Format in all cases: cell-based
ACC = ACC activation: western blot of ACC and p-ACC protein expression in liver cells; settings: HepG2 liver cells
Procedure: (§1) Chito-oligosaccharides with a molecular weight of 2,000 and 9,000 (100, 500 ppm) and liver cells (HepG2) treated by AICAR (1 mM) were added to a lysis buffer (50 mM Tris-HCl, pH 7.4, 150 mM NaCl, 0.1% SDS, 1.0% Triton X-100. 0.25% Deoxycholate, 1 mM EDTA, 1 mM PMSF) to disrupt the cells. The homogenate was centrifuged at 12,000 rpm for 15 minutes and a layer of protein was obtained. The degree of expression of ACC and p-ACC proteins was determined by a western blotting. 50 μg of protein was loaded on SDS-polyacrylamide gel, electrophoresis was carried out, and the gel was transferred to a nitrocellulose membrane. The membrane was reacted with blocking solution (5% skim milk, 10 mM Tris, pH7.5, 10 mM NaCl, 0.1% Tween 20) for 1 hour to remove nonspecific bindings, the primary antibodies to AMPK and p-AMPK proteins were added and it was maintained overnight at 4° C. Thereafter, it was washed with a blocking solution for 10 minutes three times, the secondary antibodies were added thereto, and they were reacted for 1 hour and washed as described above. After adding ECL solution, the membrane was exposed to X-ray film and the amount of protein was measured. The change in the amount of protein was calculated by an optical density with an image analyzer.
The expressions of ACC and p-ACC proteins were measured by a Western blotting as described above.

AMPK = AMPK activation: western blot of AMPK and p-AMPK protein expression in liver cells; settings: HepG2 liver cells; AICAR 1 mM; chito-oligosaccharide 100, 500 ppm; western blot optical density
Procedure: as §1

liver cells (HepG2) [1] = test: Fatty acid oxidation in liver cells ([1-14C]-palmitate); settings: 6 hours culture, positive control
Procedure: To determine the degree of fatty acid oxidation in liver cells, HepG2 cells were seeded on a 96-well plate. After stabilizing the seeded plate, AICAR and chito-oligosaccharide were added in a concentration of 100 and 500 ppm. After culturing for 6 hours, to the cells was added […] of assay buffer (20 mM HEPES, 25 mM NaHCO3, 1.2 mM KH2PO4, 3 mM glucose, 114 mM NaCl, 4.7 mM KCl, 1.2 mM MgSO4, 2.5 mM CaCl2, 1% ultra fatty acid-free BSA) and they are reacted for 30 minutes. Then, [1-^14C]-palmitate (3.4 μCi; 1.0 μCi/μmole) was incorporated thereto and labeling was carried out for 2 hours. 5% perchloric acid was added to stop the reaction and the amount of radiation was measured.

liver cells (HepG2) [2] = test: Production of ATP in liver cells (ATP assay kit, luminescence); settings: 5 to 500 ppm, 24 hours culture
Procedure: The production of ATP according to AMPK activation was measured by ATP assay kit. HepG2 cells were seeded on a 96-well plate and the seeded plate was stabilized and, thereafter, AICAR and chito-oligosaccharide were added in a concentration of 5 to 500 ppm. After culturing for 24 hours, the reagent prepared by mixing a substrate and a buffer was added to each well and they were reacted for 30 minutes at a room temperature. Cells were disrupted by mixing them in an orbital shaker and, after stabilizing them for 10 minutes, a luminescence was measured.

## NC(=O)c1ncn([C@@H]2O[C@H](CO)[C@@H](O)[C@H]2O)c1N [AICAR, AICA-riboside]
ACC; AICAR 1 mM, chito-oligosaccharide concentration not specified
  amount of p-ACC protein expression: up to twice
ACC; western blot
  total amount of ACC protein expression: not changed
AMPK
  expression of p-AMPK protein: increased twice or more
Liver cells (HepG2) [1]
  increased oxidation of fatty acid: about 35%
Liver cells (HepG2) [2]
  production of ATP: up to twice
